Results: patent publication US20240336889A1, “NOMADIC BACTERIA AND USES THEREOF” (The State of Israel, Ministry of Agriculture & Rural …, priority 2021, published 2024)

Columns and labels:
C. albicans [1] = test: C. albicans biofilm inhibition assay (crystal violet); assay type: cell-based; conditions: for effect of pure ketone on C. albicans biofilms: dose not stated
Procedure: (§1) Biofilm inhibition assay: Biofilm inhibition assays were conducted in 96-well polystyrene microtiter plates (Tarsons Products Pvt. Ltd. India) as previously described. Briefly, bacterial or yeast cells were cultured overnight in LB or PDB and re-inoculated in fresh LB or PDB (1:100 dilution) (with 0.05% glucose) with and without supplementation of postbiotics (5% or 10% v/v) at 37° C. After 24 h of incubation, biofilms were stained with crystal violet (0.1%) for 20 min, washed repeatedly, and the residual biofilm cells (attached to the polystyrene surfaces) were dissolved in 95% ethanol. The planktonic growth was measured at 600 nm, while the biofilms were measured at 575 nm using a Biowave CO8000 cell density meter. For microscopic imaging of biofilms attached to the polystyrene surfaces, the wells were stained with SYTO® 9 dye, and imaged under Nikon fluorescent microscope (Nikon Eclipse Ti2, Japan) using a GFP emission filter.

C. albicans [2] = test: Yeast-hyphae switching assay; assay type: cell-based; conditions: liquid RPMI media
Procedure: Yeast-hyphae switching assay: Yeast-hyphae (Y-H) switching assays were conducted in liquid RPMI-1640 medium as previously described. Briefly, overnights cultures of C. albicans (grown in PDB) were diluted to a 1:100 in RPMI-1640 and treated with or without UP/CSP ([…]) or ketones (0.005%-0.1%). The cultures were then incubated at 37° C. with shaking (150 rpm). Following incubation, 5 μL of the cultures were transferred to the microscopic slide and imaged under Nikon fluorescent microscope (Nikon Eclipse Ti2, Japan).

C. albicans [3] = test: C. elegans infected with C. albicans, treated with 2-undecanone; assay type: in vivo; conditions: 2-undecanone 0.01%, 7 days; infected untreated 20% survival
Procedure: C. elegans co-infection assays: Wild-type C. elegans were maintained on nematode growth medium (NGM) with E. coli OP50 as the feed, and synchronization was performed as described previously^35. Briefly, C. elegans were collected by aspiration and bleached with 2% sodium hypochlorite and 0.5 N sodium hydroxide to get the eggs. Eggs were transferred to 48-well microliter plates and were incubated for 24 h at 22° C. for hatching. The hatched juveniles were transferred to new E. coli OP50 plates and incubated for 5-7 days to obtain adult nematode. Adults were subsequently used for toxicity, and bacterial or C. albicans colonization assays. For C. albicans infection of C. elegans, the adult nematodes, previously fed on E. coli OP50, were transferred to a C. albicans lawn on NGM agar plate for 4 h. After 4 h, the nematodes were collected in M9 buffer, pipetted into a 96-well, and survival monitored for 7 days. […] The live and dead nematodes were counted under bright-field, and DAPi filter and the nematode survival rates were estimated and plotted. The images of C. elegans were acquired using a Nikon fluorescent microscope (Nikon Eclipse Ti2, Japan).
The present inventors further tested whether 2-undecanone could suppress C. albicans pathogenicity in a C. elegans model by infecting C. elegans with C. albicans.

C. elegans = C. elegans toxicity assay; assay type: in vivo; conditions: 2-undecanone 0.1%, 7 days
Procedure: C. elegans toxicity assay: C. elegans wild-type strains were maintained on nematode growth medium (NGM) with E. coli OP50 as the feed. […] The control and treatment groups (each consisting of approximately 30 nematodes per well) were suspended in liquid M9 buffer and monitored for 7 days. The live or dead nematodes were counted using the Nikon fluorescent microscope (Nikon Eclipse Ti2, Japan) using a DIC and DAPi (blue LED light) filters and the survival percentage was calculated.

C. albicans [4] = test: C. albicans growth profile; assay type: cell-based
Procedure: as §1, with “Briefly, bacterial or yeast cells were cultured overnight in LB or PDB and re-inoculated in fresh LB or PDB (1:100 dilution) (with 0.05% glucose) with and without supplementation of postbiotics (5% or 10% v/v) at 37° C.” left out

[5] = tested on: unstressed L. plantarum 3297 cells from conic colonies; test: Cold-shock colony filtrate assay: consolidated circular bundle formation in unstressed conic colony cells; assay type: cell-based; conditions: cells pre-incubated with lithium chloride (5M) before CSCF
Procedure: An assay was developed to see if the cold-stressed conic colony (−17° C. for 1 h) extracts could potentiate consolidated bundling in unstressed conic colony cells. Briefly, 1 mL of suspension from harvested cold-stressed (treated) and unstressed (control) conic colonies (approximately 5-6 colonies) were resuspended in PBS, vortexed, and sonicated. The extracts were filtered using a 0.2 μm membrane filter to remove the cells. The filtrate was named cold-shock colony filtrates (CSCF). Simultaneously, 1 mL cells from the unstressed colonies were vortexed, sonicated, and pelleted. To these pelleted unstressed cells, 1 mL of CSCF was added, aspirated, and incubated at 37° C. for 3 h. At the same time, colony filtrates (CF) from the unstressed colony and heat-treated (60° C. for 30 min) CSCF were prepared and tested. Following incubation, the aggregation pattern was scrutinized under Nikon fluorescent microscope (Nikon Eclipse Ti2, Japan). As a negative control, one vial of unstressed cells was incubated with 5M lithium chloride ([…]) for 30 min before adding 1 mL of CSCF. […] abolishes the S-layer protein and stalls the ability of the cells to aggregate to form bundles.

CCCCCC(C)=O [2-heptanone]
effect of pure ketone on C. albicans biofilms (C. albicans [1]): did not show any notable effect
effect of pure ketone on C. albicans hyphae (Y-H transitions) (C. albicans [2]): did not show any notable effect

CCCCCCCC(C)=O [2-nonanone]
effect of pure ketone on C. albicans biofilms (C. albicans [1]): did not show any notable effect
effect of pure ketone on C. albicans hyphae (Y-H transitions) (C. albicans [2]): did not show any notable effect

CCCCCCCCCC(C)=O [2-undecanone]
C. albicans biofilm formation (C. albicans [1]; 0.005%, PDB, polystyrene): successful in preventing the biofilm formation
survivability of C. albicans infected C. elegans (C. albicans [3]): 50%
mortality of C. elegans (C. elegans): did not induce any mortality
effect of pure ketone on C. albicans hyphae (Y-H transitions) (C. albicans [2]): effectively controlled Y-H transitions
C. albicans planktonic growth (C. albicans [4]; 0.005%): without compromising the planktonic growth
C. albicans growth profiles (C. albicans [4]; higher dosage (0.05 or 0.01%), RPMI media): substantial decline in the growth profiles

[Cl-].[Li+] [lithium chloride]
circular bundle formation induced by CSCF [5]: prevented
